In paper PMC5742828, “α-Glucosidase and Protein Tyrosine Phosphatase 1B Inhibitory Activity of Plastoquinones from Marine Brown Alga Sargassum serratifolium” (Marine Drugs, 2017):

Tests used:
Format in all cases: biochemical
[1] = biological target: T1, PTP1B (human recombinant) (Homo sapiens, UniProt P18031); experiment: PTP1B inhibitory assay (pNPP substrate); details: log-dose inhibition curve; mean ± SEM of triplicate experiments
T1 construct: purchased Biomol International LP (Plymouth Meeting, PA, USA)
T1 sequence (P18031 1-435): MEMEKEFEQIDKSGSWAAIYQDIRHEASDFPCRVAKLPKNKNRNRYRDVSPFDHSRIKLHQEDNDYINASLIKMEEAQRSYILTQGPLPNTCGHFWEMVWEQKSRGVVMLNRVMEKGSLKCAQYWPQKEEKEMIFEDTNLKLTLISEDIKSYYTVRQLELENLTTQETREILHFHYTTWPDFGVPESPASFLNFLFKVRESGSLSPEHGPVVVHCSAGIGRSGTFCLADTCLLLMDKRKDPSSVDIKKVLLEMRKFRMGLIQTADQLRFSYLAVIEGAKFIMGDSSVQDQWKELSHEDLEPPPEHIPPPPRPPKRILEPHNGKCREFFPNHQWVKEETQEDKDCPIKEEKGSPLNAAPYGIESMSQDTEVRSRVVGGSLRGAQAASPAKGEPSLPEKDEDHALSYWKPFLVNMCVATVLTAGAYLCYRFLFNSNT
Experimental: Dithiothreitol (DTT) was purchased from Bio-Rad Laboratories (Hercules, CA, USA) and PTP1B (human recombinant) was purchased from Biomol International LP (Plymouth Meeting, PA, USA). ONOO^− was purchased from Molecular Probes Cayman (Ann Arbor, MI, USA). All other chemicals and solvents used were purchased from E. Merck, Fluka, and Sigma-Aldrich, unless otherwise stated. The PTP1B inhibitory activities of the plastoquinones were evaluated using pNPP [68]. Recombinant PTP1B enzyme (0.5 units diluted with a PTP1B reaction buffer) was added with or without sample. The plate was pre-incubated at 37 °C for 10 min and then substrate (2 mM pNPP) was added. Following incubation at 37 °C for 15 min, the enzymatic reaction was terminated by the addition of 10 M NaOH.

[2] = biological target: T1, PTP1B (human recombinant); experiment: Kinetic study against PTP1B (Dixon plots); details: Dixon plot; pNPP 0.5, 1.0, 2.0 mM
Experimental: (§1) In an attempt to explain the mode of enzymatic inhibition of sargahydroquinoic acid, sargachromenol, and sargaquinoic acid, kinetic analysis was performed at different concentrations of the substrate (pNPP for PTP1B and pNPG for α-glucosidase) and inhibitor.
Figure 3 Dixon plots for PTP1B inhibition of compounds. (a) sargahydroquinoic acid; (b) sargachromenol and (c) sargaquinoic acid were tested in the presence of different concentrations of substrate: 2.0 mM (●); 1.0 mM (ο); 0.5 mM (▼).
(§2) To determine the modes of enzyme inhibition, Dixon plots were used. The kinetic analyses were performed at different concentrations of substrate (0.625, 1.25, and 2.5 mM pNPG for α-glucosidase; 0.5, 1.0, and 2.0 mM pNPP for PTP1B) and various concentrations of plastoquinones (0, 0.4, 2.0, and 10.0 µM for PTP1B and 0, 25, 50 and 100 µM for α-glucosidase, respectively). Enzymatic inhibition of the test plastoquinones was evaluated by monitoring the effects of different concentrations of the substrate in the Dixon plots (single reciprocal plots). The enzymatic procedure consisted of the same aforementioned assay method. The inhibition constants (Ki) were determined via interpretation of the Dixon plots, where the value of the x-axis implies -Ki.

Yeast α-glucosidase = Yeast α-glucosidase (Saccharomyces cerevisiae, UniProt P53341); experiment: Kinetic study against α-glucosidase (Dixon plots); details: Dixon plot; pNPG 0.625, 1.25, 2.5 mM
Chain of Yeast α-glucosidase (P53341 whole entry): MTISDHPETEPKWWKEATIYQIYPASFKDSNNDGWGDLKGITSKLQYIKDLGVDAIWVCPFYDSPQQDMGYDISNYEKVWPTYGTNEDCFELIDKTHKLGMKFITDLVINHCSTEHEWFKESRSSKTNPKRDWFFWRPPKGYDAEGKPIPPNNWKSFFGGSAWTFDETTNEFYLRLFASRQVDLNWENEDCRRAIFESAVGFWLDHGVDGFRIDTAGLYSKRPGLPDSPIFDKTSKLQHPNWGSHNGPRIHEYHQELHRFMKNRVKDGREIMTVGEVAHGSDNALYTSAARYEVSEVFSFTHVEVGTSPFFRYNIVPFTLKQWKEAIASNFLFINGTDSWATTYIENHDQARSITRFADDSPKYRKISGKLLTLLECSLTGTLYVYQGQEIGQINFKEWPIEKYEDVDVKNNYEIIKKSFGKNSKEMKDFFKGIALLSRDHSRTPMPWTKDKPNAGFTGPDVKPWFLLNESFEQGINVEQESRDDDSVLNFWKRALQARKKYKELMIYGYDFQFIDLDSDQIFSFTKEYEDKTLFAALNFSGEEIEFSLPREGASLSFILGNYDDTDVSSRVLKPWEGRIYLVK
Experimental: as §1
Figure 4 Dixon plots for α-glucosidase inhibition of compounds. (a) sargachromenol and (b) sargaquinoic acid were tested in the presence of different concentrations of substrate: 2.5 mM (●); 1.25 mM (ο); 0.625 mM (▼).
as §2

[3] = tested on: bovine serum albumin (BSA); experiment: Inhibition of ONOO−-mediated albumin nitration (western blot, 3-nitrotyrosine antibody); details: ONOO− 200 µM
Experimental: Figure 5 Dose-depended inhibition of ONOO^−-mediated albumin nitration by plastoquinones. Mixtures of test samples, bovine serum albumin (BSA), and ONOO^− were incubated with shaking at 37 °C for 30 min. The reactant was resolved in 10% polyacrylamide gel via electrophoresis. (a) sargahydroquinoic acid; (b) sargachromenol; and (c) sargaquinoic acid were used at the indicated concentrations; (d) Quantification of band intensity was calculated using CS Analyzer 3.00 (ATTO Corp., Tokyo, Japan). ^# p < 0.05 indicates a significant difference from the untreated normal group, * p < 0.05 indicate significant differences from the ONOO^− treated control.
The inhibition of ONOO^–-mediated nitrated albumin was evaluated using the method of Aulak et al.. Samples were added to bovine serum albumin (BSA) and mixed with ONOO^− (200 µM). After 10 min incubation (room temperature), the sample solution was added to Bio-Rad 2X Laemmli Sample buffer with mercaptoethanol and then boiled for 7 min. The reactant was resolved in 10% polyacrylamide gel via electrophoresis and transferred onto PVDF membranes. Pre-stained blue protein markers were used for molecular weight determination. Monoclonal anti-nitrotyrosine antibody (85 kDa) was used as a primary antibody and horseradish peroxidase-conjugated sheep anti-mouse secondary antibody was used as a secondary antibody. Antibody labeling was visualized using the Supersignal West Pico Chemiluminescent substrate (Pierce Chemical Co., Rockford, IL, USA). Densitometric analysis of the western blot results was determined using CS analyzer v3.00 (ATTO Corp.).

| Structure (SMILES) | IC50 [1] [µM] | Ki [2] [µM] | PTP1B Inhibition Type [2] | α-Glucosidase Inhibition Type (Yeast α-glucosidase) | Inhibition of ONOO−-mediated albumin nitration ([3]; pretreatment at 2.5–10 μM) | Inhibition of ONOO−-mediated albumin nitration ([3]; pretreatment at 5–25 μM) |
| --- | --- | --- | --- | --- | --- | --- |
| CC(C)=CCC/C(=C/CC/C(C)=C/CCC1(C)C=Cc2cc(O)cc(C)c2O1)C(=O)O (centres unmarked) [Sargachromenol, sargachromenol] | 11.8 ± 3.35 | 5.85 | Non-competitive | Non-competitive | strong inhibition | – |
| CC(C)=CCC/C(=C/CC/C(C)=C/CC/C(C)=C/Cc1cc(O)cc(C)c1O)C(=O)O [Sargahydroquinoic acid, sargahydroquinoic acid] | 5.14 ± 0.07 | 2.21 | Mixed | – | – | markedly dose-dependent inhibition |
| CC(C)=CCC/C(=C/CC/C(C)=C/CC/C(C)=C/CC1=CC(=O)C=C(C)C1=O)C(=O)O [Sargaquinoic acid, sargaquinoic acid] | 14.15 ± 0.02 | 5.2 | Mixed | Mixed | – | markedly dose-dependent inhibition |
